Laboratory results: ChEMBL document CHEMBL1141325, “Pinpointing pseurotins from a marine-derived Aspergillus as tools for chemical genetics using a synthetic lethality yeast screen” (2007)
The source made the active and inactive calls. The rule behind the calls is not given here.

Legend:
[1] = tested on: Saccharomyces cerevisiae; experiment: Cytotoxicity against wild-type Saccharomyces cerevisiae by yeast halo assay relative to control; type: functional
[2] = tested on: Saccharomyces cerevisiae; experiment: Cytotoxicity against wild-type Saccharomyces cerevisiae hof1delta mutant by yeast halo assay relative to control; type: functional

SMILES	Activity [1]	Activity [2]	inhibition zone (IZ) [1] [mm]	inhibition zone (IZ) [2] [mm]
CC/C=C\[C@H](O)[C@H](O)C1=C(C)C(=O)[C@]2(O1)C(=O)N[C@@](OC)(C(=O)c1ccccc1)[C@@H]2O	inactive	inactive		
CC/C=C\[C@H](OC)[C@H](O)C1=C(C)C(=O)[C@]2(O1)C(=O)N[C@@](OC)(C(=O)c1ccccc1)[C@@H]2O [11-O-METHYLPSEUROTIN A]			4	9
